{"source": "patent US20230149362A1", "about": "“NEW CAPSULE COMPOSITION FOR PERORAL ADMINISTRATION” (Vicore Pharma AB, priority 2020, published 2023)", "test": "Solubility of C21 sodium salt in lipid-based excipients (UPLC)", "type": "physicochemical", "experimental": "C21 sodium salt (RISE AB, Södertälje, Sweden) was mixed with various potential carriers in the proportions described in Table 5 below (mg of C21 per gram of excipient) and absolute solubility of C21 was determined, two and five days after mixing.\nThe procedure was carried out by first weighing around 2.955 g of each excipient into a 20 mL headspace vial. Then, 0.045 g of C21 was added to each vial to reach a starting concentration of 15 mg/g. A magnetic stirrer was added into each mixture to stir the dispersion during the entire study (at around 300 rpm).\nSolubility was determined at room temperature in general, although some of the excipients listed below (those marked with an asterisk) are solid at room temperature, in which case solubility was determined at 60° C.\nThe mixtures were observed over time to confirm excipient saturation. In the case of complete C21 solubilization (i.e. no particles were visible), addition of C21 was performed until a maximum API concentration of 100 mg/g was attained.\nAfter confirming that the saturation point had been reached, or after reaching the maximum API concentration of 100 mg/g, sampling of the mixtures were performed after two (T2) and five (T5) days of stirring.\nAt each tirnepoint, and for each excipient, sampling was performed. The samples were filtered prior to assaying to determine the C21 sodium salt solubility in each excipient.\nTwo analytical samples were prepared from the filtrate obtain a mean value.\nA Waters UPLC Acquity system (CSH C18; 100×2.1 mm×1.7 μm) with a UV and a DED detector was used to quantitatively determine solubility. The following chromatograhpic conditions were applied: (A) mobile phase water with 003% TFA, (6) acetonitrile with 0.03% TFA, with gradient, flow rate 0.5 mL/min, temperature 40° C., run time 24 minutes, injection volume 2 μL at room temperature.", "note": "Where a name gives a salt, the structure may show the parent alone.", "data": [{"compound": "CCCCOC(=O)NS(=O)(=O)c1sc(CC(C)C)cc1-c1ccc(Cn2ccnc2)cc1", "note": "[C21 sodium salt, N-butyloxycarbonyl-3-(4-imidazol-1-ylmethylphenyl)-5-iso-butylthiophene-2-sulfonamide]", "values": [{"measurement": "C21 Mean Solubility T5 Assay", "setting": "Fasted Simulated Intestinal Fluid (FaSSIF), five days, room temperature", "value": 10.4, "unit": "mg/g"}, {"measurement": "C21 Mean Solubility T2 Assay", "setting": "Fasted Simulated Intestinal Fluid (FaSSIF), two days, room temperature", "value": 10.4, "unit": "mg/g"}, {"measurement": "C21 Mean Solubility T5 Assay", "setting": "Fed Simulated Intestinal Fluid (FeSSIF), five days, room temperature", "value": 0.6, "unit": "mg/g"}, {"measurement": "C21 Mean Solubility T2 Assay", "setting": "Fed Simulated Intestinal Fluid (FeSSIF), two days, room temperature", "value": 0.3, "unit": "mg/g"}, {"measurement": "C21 Mean Solubility T5 Assay", "setting": "Gelucire 43/01, five days, 60° C.", "value": 0.0, "unit": "mg/g"}, {"measurement": "C21 Mean Solubility T2 Assay", "setting": "Gelucire 43/01, two days, 60° C.", "value": 0.0, "unit": "mg/g"}, {"measurement": "C21 Mean Solubility T5 Assay", "setting": "Gelucire 44/14, five days, 60° C.", "value": 43.9, "unit": "mg/g"}, {"measurement": "C21 Mean Solubility T2 Assay", "setting": "Gelucire 44/14, two days, 60° C.", "value": 44.1, "unit": "mg/g"}, {"measurement": "C21 Mean Solubility T5 Assay", "setting": "Glyceryl monolinoleate (Maisine CC), five days, room temperature", "value": 60.4, "unit": "mg/g"}, {"measurement": "C21 Mean Solubility T2 Assay", "setting": "Glyceryl monolinoleate (Maisine CC), two days, room temperature", "value": 61.4, "unit": "mg/g"}, {"measurement": "C21 Mean Solubility T5 Assay", "setting": "Glyceryl monooleate (Peceol), five days, room temperature", "value": 82.2, "unit": "mg/g"}, {"measurement": "C21 Mean Solubility T2 Assay", "setting": "Glyceryl monooleate (Peceol), two days, room temperature", "value": 82.3, "unit": "mg/g"}, {"measurement": "solubility", "setting": "Labrafil M2130CS, at 60° C.", "value": "around 14 mg/g"}, {"measurement": "C21 Mean Solubility T5 Assay", "setting": "Lauryl polyoxyl-6-glycerides (Labrafil M 2130 CS), five days, 60° C.", "value": 13.5, "unit": "mg/g"}, {"measurement": "C21 Mean Solubility T2 Assay", "setting": "Lauryl polyoxyl-6-glycerides (Labrafil M 2130 CS), two days, 60° C.", "value": 13.9, "unit": "mg/g"}, {"measurement": "C21 Mean Solubility T5 Assay", "setting": "Linoleoyl polyoxyl-6-glycerides (Labrafil M 2125 CS), five days, room temperature", "value": 21.1, "unit": "mg/g"}, {"measurement": "C21 Mean Solubility T2 Assay", "setting": "Linoleoyl polyoxyl-6-glycerides (Labrafil M 2125 CS), two days, room temperature", "value": 22.0, "unit": "mg/g"}, {"measurement": "C21 Mean Solubility T5 Assay", "setting": "Medium chain triglycerides (Miglyol 812N), five days, room temperature", "value": 0.0, "unit": "mg/g"}, {"measurement": "C21 Mean Solubility T2 Assay", "setting": "Medium chain triglycerides (Miglyol 812N), two days, room temperature", "value": 0.0, "unit": "mg/g"}, {"measurement": "C21 Mean Solubility T5 Assay", "setting": "Oleoyl polyoxyl-6-glycerides (Labrafil M 1944 CS), five days, room temperature", "value": 20.1, "unit": "mg/g"}, {"measurement": "C21 Mean Solubility T2 Assay", "setting": "Oleoyl polyoxyl-6-glycerides (Labrafil M 1944 CS), two days, room temperature", "value": 19.5, "unit": "mg/g"}, {"measurement": "C21 Mean Solubility T5 Assay", "setting": "Polyoxyethylene (20) sorbitan monooleate (Tween 80), five days, room temperature", "value": 84.8, "unit": "mg/g"}, {"measurement": "C21 Mean Solubility T2 Assay", "setting": "Polyoxyethylene (20) sorbitan monooleate (Tween 80), two days, room temperature", "value": 85.2, "unit": "mg/g"}, {"measurement": "C21 Mean Solubility T5 Assay", "setting": "Propylene glycol monocaprylate (Capryol PGMC), five days, room temperature", "value": 7.1, "unit": "mg/g"}, {"measurement": "C21 Mean Solubility T2 Assay", "setting": "Propylene glycol monocaprylate (Capryol PGMC), two days, room temperature", "value": 7.1, "unit": "mg/g"}, {"measurement": "C21 Mean Solubility T5 Assay", "setting": "Propylene glycol monolaurate (Lauroglycol 90), five days, room temperature", "value": 12.4, "unit": "mg/g"}, {"measurement": "C21 Mean Solubility T2 Assay", "setting": "Propylene glycol monolaurate (Lauroglycol 90), two days, room temperature", "value": 12.4, "unit": "mg/g"}, {"measurement": "C21 Mean Solubility T5 Assay", "setting": "Refined corn oil (Henry Lamotte), five days, room temperature", "value": 0.0, "unit": "mg/g"}, {"measurement": "C21 Mean Solubility T2 Assay", "setting": "Refined corn oil (Henry Lamotte), two days, room temperature", "value": 0.0, "unit": "mg/g"}, {"measurement": "C21 Mean Solubility T5 Assay", "setting": "Refined sesame oil (Henry Lamotte), five days of stirring, room temperature", "value": 0.2, "unit": "mg/g"}, {"measurement": "C21 Mean Solubility T2 Assay", "setting": "Refined sesame oil (Henry Lamotte), two days of stirring, room temperature", "value": 0.2, "unit": "mg/g"}, {"measurement": "C21 Mean Solubility T5 Assay", "setting": "Sorbitan monooleate (Montane 80), five days, room temperature", "value": 61.5, "unit": "mg/g"}, {"measurement": "C21 Mean Solubility T2 Assay", "setting": "Sorbitan monooleate (Montane 80), two days, room temperature", "value": 61.6, "unit": "mg/g"}, {"measurement": "C21 Mean Solubility T5 Assay", "setting": "Sorbitan trioleate (Span 85), five days, room temperature", "value": 12.1, "unit": "mg/g"}, {"measurement": "C21 Mean Solubility T2 Assay", "setting": "Sorbitan trioleate (Span 85), two days, room temperature", "value": 15.1, "unit": "mg/g"}, {"measurement": "C21 Mean Solubility T5 Assay", "setting": "Soya oil (Henry Lamotte), five days, room temperature", "value": 0.0, "unit": "mg/g"}, {"measurement": "C21 Mean Solubility T2 Assay", "setting": "Soya oil (Henry Lamotte), two days, room temperature", "value": 0.0, "unit": "mg/g"}, {"measurement": "C21 Mean Solubility T5 Assay", "setting": "Triacetin (Kollisolv GTA), five days, room temperature", "value": 0.3, "unit": "mg/g"}, {"measurement": "C21 Mean Solubility T2 Assay", "setting": "Triacetin (Kollisolv GTA), two days, room temperature", "value": 0.2, "unit": "mg/g"}, {"measurement": "solubility in words", "setting": "triglyceride-based excipients", "value": "essentially insoluble"}]}]}
